Data on one molecule can be found in patent US20230226105A1, “METHODS AND COMPOSITIONS FOR TREATING CANCER” (ReversPAH LLC, priority 2021, published 2023).

Data set [1] is described as follows: Stability of TTM filled in enteric capsules exposed to stomach acid / simulated stomach acid. Type of data set: physicochemical. The following applies: additional enteric coatings applied; after one hour. The procedure: The present inventors have determined that while the designed disintegration properties of an enteric capsule remain stable for 2 hours and the designed enteric capsule may have a diffusion rate below 7.5% in the first two hours, the inventors research confirmed in fact stomach acid or moisture from the stomach does enter the capsule, and the enteric interior capsule walls become wet, thereby subjecting the TTM to the acid or moisture, causing rapid degradation of the enteric capsule from the chemical reaction with the moistened TTM.
The present inventors have determined that the TTM releases H2S gas when a small amount of stomach acid or moisture enters the enteric capsule, not only causing degradation of the TTM, but also the moisture seeping through the capsule causes TTM to release H2S as part of the degradation process, which then comes in contact with the inside of the enteric capsule. This dissolves the enteric capsule from inside the capsule and leads to a catastrophic capsule failure within 15 to 30 minutes.
This is not a preferred solution as the TTM is getting wet inside the capsule and degrading, creating the problem of not knowing how much TTM will be left to be absorbed by the patient after the tablet leaves the stomach. Such a reaction reduces the amount of drug being available to the patient, thereby reducing the drugs intended effect due to less TTM available. […]

Data set [2] can be described thus: Solubility of crushed and screened TTM particles in water. The format is physicochemical. The following applies: particles after 70-mesh screen. The source says:
The present inventors undertook a study to determine the size of the TTM particles after a crushing and screening process using a 70-mesh screen that would allow a maximum particle size of 210 micrometers. The size range was as follows: 10% under 13.3 μm; 50% under 44.5 μm; 90% under 122 μm.
This is not unsurprising, as saturation will occur in fluids as a known principle and does illustrate enough fluid is required to be available to dissolve the administered TTM to create optimal bioavailability. Further, larger particles with […] surface area would be expected to remain after the smaller particles dissolve.

Consider `[SH-].[SH-].[S]=[Mo]=[S]` [TTM, tetrathiomolybdate], for which the “TTM leakage from enteric capsule with additional enteric coatings” value in data set [1] is recorded as “still leaking out”. Besides, the solubility in water result in data set [2] (60 mg in 300 ml water) is “dissolved fully over time”; in data set [2] (160 mg in 300 ml of water) it was “did not fully dissolve”.
